Experimental findings from patent publication US6451576B1, “Sesquiterpene synthases from grand fir (Abies grandis), and methods of use” (Washington State University Research Foundation, priority 1998, dated 2002) are described below.

Assay [1] concerns the target T1, γ-humulene synthase (SEQ ID No:24) (Abies grandis, UniProt O64405).
T1 construct: For further subcloning of the amplified, full-length cDNA into the pSBETa vector for high-level expression, the pGAG5 insert was amplified; made in house; host or cells: E. coli XL1-Blue/pGAG5 or E. coli BL21(DE3)/pSBAG5
T1 sequence (O64405 1-593): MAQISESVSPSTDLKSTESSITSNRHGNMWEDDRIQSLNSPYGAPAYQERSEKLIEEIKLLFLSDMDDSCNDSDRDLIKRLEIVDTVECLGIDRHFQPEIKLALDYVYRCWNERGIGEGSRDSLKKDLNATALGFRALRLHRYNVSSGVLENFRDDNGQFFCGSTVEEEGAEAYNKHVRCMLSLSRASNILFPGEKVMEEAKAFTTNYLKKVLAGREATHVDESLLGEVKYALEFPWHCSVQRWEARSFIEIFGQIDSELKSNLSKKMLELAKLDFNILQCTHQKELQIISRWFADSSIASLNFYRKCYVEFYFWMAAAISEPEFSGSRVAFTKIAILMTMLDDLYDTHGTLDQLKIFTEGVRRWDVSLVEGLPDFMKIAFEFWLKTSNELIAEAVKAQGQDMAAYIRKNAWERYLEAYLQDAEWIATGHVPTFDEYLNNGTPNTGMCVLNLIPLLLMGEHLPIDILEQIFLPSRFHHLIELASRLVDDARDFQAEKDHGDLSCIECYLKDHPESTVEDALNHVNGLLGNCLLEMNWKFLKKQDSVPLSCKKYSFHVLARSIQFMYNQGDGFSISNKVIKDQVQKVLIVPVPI
Kind of assay: Kinetic parameters, metal ion requirement and substrate specificity of recombinant γ-humulene synthase. The class given is biochemical. As for the experimental part:
(§1) The assay for recombinant sesquiterpene synthase (cyclase) activity was performed in 1 ml of buffer (extraction buffer without MnCl2 or the polymeric adsorbents) containing 3.5 μM [1-^3H]farnesyl diphosphate and the total protein extracted from a 5 ml bacterial culture to produce 10^5-10^6 dpm of product in 2 h at 31° C. The incubation mixture was overlaid with 1 ml pentane to trap volatile products. After incubation, the reaction mixture was extracted with pentane (3×1 ml) and the combined extract was passed through a MgSO4-silica gel column to provide the terpene hydrocarbon fractions as before. The columns were subsequently eluted with 3×1 ml of ether to collect any oxygenated products, and an aliquot of each fraction was taken for liquid scintillation counting to determine conversion rate. The monoterpene synthase and diterpene synthase activity assays were similarly performed as described in detail elsewhere (LaFever, R. E., et al., (1994) Arch. Biochem. Biophys. 313, 139-149; Bohlmann, J., et al., (1997) J. Biol. Chem. 272, 21784-21792; Lewinsohn, E., et al., (1991) Plant Physiol. 96, 38-43).
(§2) The substrate specificity and other kinetic. parameters of γ-humulene synthase (SEQ ID No:24) and δ-selinene synthase (SEQ ID No:20) were investigated in order to confirm the identification and classification of these enzymes. […] Neither of these sesquiterpene synthases requires K^+ or other monovalent cation for activity.
(§3) Substrate specificity of δ-selinene synthase (SEQ ID No:20) and γ-humulene synthase (SEQ ID No:24) was evaluated by comparing farnesyl diphosphate (C15) to geranyl diphosphate (C10) and geranylgeranyl diphosphate (C20) at saturation as precursors of the respective terpene olefins. […] The identities of the monoterpene products produced by the sesquiterpene synthases were determined by GLC-MS and are set forth in FIG. 4.

Assay [2] concerns the target T2, δ-selinene synthase (SEQ ID No:20) (Abies grandis, UniProt O64404).
T2 construct: made in house; host or cells: E. coli XL1-Blue/pGAG4 or E. coli BL21(DE3)/pSBAG4
T2 sequence (O64404 1-581): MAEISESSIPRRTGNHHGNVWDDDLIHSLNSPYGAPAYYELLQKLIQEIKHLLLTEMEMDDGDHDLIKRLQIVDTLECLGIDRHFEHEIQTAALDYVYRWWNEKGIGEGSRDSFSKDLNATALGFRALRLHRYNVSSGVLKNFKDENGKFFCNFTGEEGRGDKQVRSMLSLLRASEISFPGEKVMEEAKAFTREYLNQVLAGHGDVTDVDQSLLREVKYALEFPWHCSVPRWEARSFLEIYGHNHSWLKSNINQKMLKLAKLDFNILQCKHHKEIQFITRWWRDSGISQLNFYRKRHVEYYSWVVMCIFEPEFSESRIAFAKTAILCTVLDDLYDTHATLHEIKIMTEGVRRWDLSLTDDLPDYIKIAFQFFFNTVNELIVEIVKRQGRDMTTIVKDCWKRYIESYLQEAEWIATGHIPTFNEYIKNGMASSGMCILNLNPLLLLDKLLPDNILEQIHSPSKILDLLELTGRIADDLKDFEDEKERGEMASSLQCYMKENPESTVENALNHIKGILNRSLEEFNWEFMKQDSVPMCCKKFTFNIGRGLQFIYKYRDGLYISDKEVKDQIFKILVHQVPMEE
The experiment in a line: Kinetic parameters, metal ion requirement and substrate specificity of recombinant δ-selinene synthase. The class given is biochemical. The procedure:
as §1, §2, §3

Each structure is given as a SMILES string.

For the compound `CC(C)=CCC/C(C)=C/COP(=O)(O)OP(=O)(O)O` [geranyl diphosphate, reference compound], the “olefin formation from substrate at saturation, compared with farnesyl diphosphate” value in assay [1] and in assay [2] was “roughly half the rate” throughout.

On to `CC(C)=CCC/C(C)=C/CC/C(C)=C/CC/C(C)=C/COP(=O)(O)OP(=O)(O)O` [geranylgeranyl diphosphate, reference compound], for which the “olefin formation from substrate at saturation, compared with farnesyl diphosphate” value in assay [1] and in assay [2] was “failed to generate detectable olefinic products” throughout.
